The values that follow come from paper PMC3953482, “Fha Interaction with Phosphothreonine of TssL Activates Type VI Secretion in Agrobacterium tumefaciens” (PLoS Pathogens, 2014).

Entries after “also recorded” stand apart in the source; their conditions may differ. Non-standard residues stand in square brackets, D forms with d. No end group written: not given here. pT = C[C@@H](OP(=O)(O)O)[C@H](N)C(=O)O

One assay deals with Fha7-267^WT. Put plainly: Isothermal titration calorimetry (ITC) of TssL/CHK2 peptides with Fha7-267^WT. The format is binding, A. tumefaciens. The note with it: 25°C, 50 mM Tris-HCl (pH 8.0), 150 mM NaCl, 200 µM protein in cell, 6 mM peptide in syringe, result in words. The text has this: Because FHA domains are well known to bind to pThr residues specifically [33]–[35], we hypothesized that Fha specifically binds Thr 14-phosphorylated TssL to activate type VI secretion. To test this hypothesis, we first performed isothermal titration calorimetry (ITC) analysis with purified Fha proteins and synthetic phosphorylated- and unphosphorylated TssL N-terminal peptides. Because of the instability of full-length Fha protein purified from E. coli (data not shown), we purified truncated Fha proteins with different lengths for the ITC experiments (Figure S6A). […] The binding affinity was ∼3-fold higher (Kd 0.54±0.07 mM) with a longer phosphorylated TssL peptide (DNPSSWQDLPpTVVEITEESR, p-TssL^20 mer) (Figure 6B). […] (Figure 6C, 6E).
Figure 6 Phosphorylated TssL is a direct binding partner of Fha. Isothermal titration calorimetry (ITC) of specific binding between Fha and TssL peptides. […]
ITC analysis was used to determine the binding affinity and stoichiometry between Fha and TssL T-14 peptide with use of the MicroCal iTC200 system (GE Healthcare) and analyzed with ORIGIN software. […] The titration heat was calculated to eliminate the effect of heat generated from titrating the ligand into buffer. […]

For another assay, the target named is Fha7-309^WT. As to the kind of experiment: Isothermal titration calorimetry (ITC) of TssL peptides with Fha7-309^WT. The format is binding, A. tumefaciens. The note with it: 25°C, 50 mM Tris-HCl (pH 8.0), 150 mM NaCl, 200 µM protein in cell, 6 mM peptide in syringe, result in words. Here is the method:
ITC analysis was used to determine the binding affinity and stoichiometry between Fha and TssL T-14 peptide with use of the MicroCal iTC200 system (GE Healthcare) and analyzed with ORIGIN software. Truncated His-tagged Fha^7–267 and Fha^7–309 proteins were overexpressed and purified from E. coli BL21(DE3) as described. The proteins and various synthetic peptides were dissolved in buffer containing 50 mM Tris-HCl (pH 8.0), 150 mM NaCl. Synthetic phosphorylated TssL (DLPpTVVEI, p-TssL^8 mer; DNPSSWQDLPpTVVEITEESR, p-TssL^20 mer), unphosphorylated TssL (DLPTVVEI, TssL^8 mer), and phosphorylated CHK2 (VSpTQEL, p-CHK2^6 mer) peptides, were used to titrate the various Fha^7–267 or Fha^7–309 proteins at 25°C with a total 25 times of injections with 200 µM protein in the sample cell and 6 mM peptide in the injection syringe. The titration heat was calculated to eliminate the effect of heat generated from titrating the ligand into buffer. […]
Supplementary file ppat.1003991.s006.tif: Figure S6 SDS-PAGE analysis of purified Fha proteins and isothermal titration calorimetry (ITC) analysis. […] Five µg of purified Fha proteins (Fha7-267^WT, Fha7-267^R30AS46A, Fha7-309^WT) was analyzed by 12% SDS-PAGE and stained by Coomassie blue to ensure protein purity. […]
On the technique in general: Isothermal titration calorimetry measures the heat released or taken up as one component is titrated into another.

Assay [1] concerns the target Fha7-267^WT (truncated His-tagged Fha with the intact FHA domain) (Agrobacterium tumefaciens C58). As to the kind of experiment: ITC; MicroCal iTC200; 200 µM Fha protein in the sample cell, 6 mM peptide in the injection syringe, 25 injections, 25°C, 50 mM Tris-HCl (pH 8.0), 150 mM NaCl; One Set of Sites model with the N value fixed at 1.
The target of assay [2] is Fha7-309^WT (longer version of the truncated Fha protein) (Agrobacterium tumefaciens C58). Described as above.

Take “DLPTVVEI [TssL^8 mer, synthetic unphosphorylated TssL peptide (DLPTVVEI)]”: the “equilibrium dissociation constant (Kd), binding not detectable” value on Fha7-267^WT is listed as “could not detect the binding affinity; also recorded: Undetectable”. The “binding affinity, not detectable” value at Fha7-309^WT was “undetectable”. “VSpTQEL [p-CHK2^6 mer, 6 mer phosphorylated CHK2 peptide (VSpTQEL), control, reference compound]”: the “equilibrium dissociation constant (Kd), binding not detectable” value at Fha7-267^WT is reported as “could not detect the binding affinity; also recorded: Undetectable”.

In the case of DNPSSWQDLP[pT]VVEITEESR [20 mer phosphorylated TssL peptide (…p…)], the Kd (as a rule, the constant that tells how readily two partners part at equilibrium) in assay [1] came to 540 µM. On to DLP[pT]VVEI [8 mer phosphorylated TssL peptide (DLPpTVVEI)], for which the Kd in assay [2] was determined as 2150 µM; in assay [1], 1580 µM.
